How the values were obtained:
[1] = Dynamic solubility in water, SGF, FaSSIF and FeSSIF; format: physicochemical; design: S (dynamic solubility): unit not given here; conditions: listed as Phosphate salt crystal form A-V; for S (dynamic solubility): 37° C., feed 10 mg/mL
Procedure, shortened: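 Free form and salt crystal forms tested over time in water, SGF (pH 1.8), FaSSIF (pH 6.5) and FeSSIF (pH 5.0), simulated fluids made with SIF powder. At each time point samples were centrifuged, passed through 0.45 μm PTFE, and filtrate concentration (HPLC) and pH measured.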

[2] = Hygroscopicity by dynamic moisture sorption (DVS); format: physicochemical; conditions: DVS, listed as Phosphate salt crystal form A-V
Procedure, shortened: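 Mass change of salt and free-form crystal samples recorded at 25° C over a 0% RH-95% RH-0% RH cycle. Steps were 10% RH (last step 5%) with a dm/dt equilibrium criterion of 0.002%/min.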

[3] = Solid-state stability evaluation (XRPD, HPLC); format: physicochemical; conditions: listed as Phosphate salt crystal form A-V
Protocol: The following 6 test samples were placed under 25° C./60% RH and 40° C./75% RH conditions for 1 week, and then the physical and chemical stability of the samples was tested by XRPD and HPLC.
At the same time, after the p-toluenesulfonate salt crystal form A-II and crystal form B-III solids were placed at 80° C. for 24 hours, the physical and chemical stability of the samples were tested by XRPD and HPLC.

[4] = tested on: human lung cancer cells EBC-1; experiment: Efficacy in nude mouse tumor-bearing model of human lung cancer cells EBC-1; format: in vivo, Balb/c nude mouse
Procedure, shortened: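 Female BALB/c nude mice bearing subcutaneous EBC-1 xenografts (5×10^6 cells; 150-200 mm^3 at start), 6/group, dosed orally once daily for about 3 weeks at 15 and 7.5 mg/kg (free-base equivalent) in 0.1% CMC-Na. Tumors measured twice weekly; T/C (%) from relative tumor volume versus vehicle.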

**Q.** With `O=C(Nc1ccc(F)cc1)C1(C(=O)Nc2ccc(Oc3ccnc4cc(OCCCN5CCOCC5)c5c(c34)OCCO5)c(F)c2)CC1` [Example 5, N-(3-fluoro-4-((5-(3-morpholinopropoxy)-2,3-dihydro-[1,4]dioxano[2,3-f]quinolin-10-yl)oxy)phenyl)-N-(4-fluorophenyl)cyclopropane-1,1-dicarboxamide] as the molecule, how does the “S (dynamic solubility)” value ([1]; FaSSIF, 1 hour) read?
**A.** 0.028

**Q.** What about the “pH of the filtrate” value ([1]; FaSSIF, 1 hour) of the same molecule?
**A.** 5.8

**Q.** And the “S (dynamic solubility)” value ([1]; FaSSIF, 2 hours)?
**A.** 0.030

**Q.** What about the “pH of the filtrate” value ([1]; FaSSIF, 2 hours) of the same molecule?
**A.** 5.8

**Q.** And the “S (dynamic solubility)” value ([1]; FaSSIF, 4 hours)?
**A.** 0.024

**Q.** What about the “pH of the filtrate” value ([1]; FaSSIF, 4 hours) of the same molecule?
**A.** 5.8

**Q.** And the “S (dynamic solubility)” value ([1]; FaSSIF, 24 hours)?
**A.** 0.080

**Q.** And the “pH of the filtrate” value ([1]; FaSSIF, 24 hours)?
**A.** 5.3

**Q.** And the “S (dynamic solubility)” value ([1]; FeSSIF, 1 hour)?
**A.** 1.5

**Q.** What about the “pH of the filtrate” value ([1]; FeSSIF, 1 hour) of the same molecule?
**A.** 4.9

**Q.** What about the “S (dynamic solubility)” value ([1]; FeSSIF, 2 hours) of the same molecule?
**A.** 1.4

**Q.** And the “pH of the filtrate” value ([1]; FeSSIF, 2 hours)?
**A.** 5.0

**Q.** And the “S (dynamic solubility)” value ([1]; FeSSIF, 4 hours)?
**A.** 1.3

**Q.** What about the “pH of the filtrate” value ([1]; FeSSIF, 4 hours) of the same molecule?
**A.** 5.0

**Q.** And the “S (dynamic solubility)” value ([1]; FeSSIF, 24 hours)?
**A.** 0.20

**Q.** What about the “pH of the filtrate” value ([1]; FeSSIF, 24 hours) of the same molecule?
**A.** 5.0

**Q.** What about the “S (dynamic solubility)” value ([1]; H2O, 1 hour) of the same molecule?
**A.** 2.5

**Q.** What about the “pH of the filtrate” value ([1]; H2O, 1 hour) of the same molecule?
**A.** 4.5

**Q.** And the “S (dynamic solubility)” value ([1]; H2O, 2 hours)?
**A.** 2.6

**Q.** And the “pH of the filtrate” value ([1]; H2O, 2 hours)?
**A.** 4.5

**Q.** What about the “S (dynamic solubility)” value ([1]; H2O, 4 hours) of the same molecule?
**A.** 2.4

**Q.** And the “pH of the filtrate” value ([1]; H2O, 4 hours)?
**A.** 4.5

**Q.** What about the “S (dynamic solubility)” value ([1]; H2O, 24 hours) of the same molecule?
**A.** 2.5

**Q.** And the “pH of the filtrate” value ([1]; H2O, 24 hours)?
**A.** 4.4

**Q.** What about the “S (dynamic solubility)” value ([1]; SGF, 1 hour) of the same molecule?
**A.** 6.9

**Q.** What about the “pH of the filtrate” value ([1]; SGF, 1 hour) of the same molecule?
**A.** 2.7

**Q.** And the “S (dynamic solubility)” value ([1]; SGF, 2 hours)?
**A.** completely dissolved

**Q.** What about the “S (dynamic solubility)” value ([1]; SGF, 4 hours) of the same molecule?
**A.** completely dissolved

**Q.** And the “S (dynamic solubility)” value ([1]; SGF, 24 hours)?
**A.** 6.4

**Q.** And the “pH of the filtrate” value ([1]; SGF, 24 hours)?
**A.** 2.7

**Q.** What about the “Moisture adsorption (25° C./80% RH)” value ([2]; 25° C./80% RH) of the same molecule?
**A.** 6.43%

**Q.** And the Hygroscopicity ([2]; 25° C.)?
**A.** Hygroscopic

**Q.** What about the Purity ([3]; 25° C./60% RH, 1 week) of the same molecule?
**A.** 99.13 area %

**Q.** What about the Purity ([3]; 40° C./75% RH, 1 week) of the same molecule?
**A.** 99.13 area %

**Q.** And the Purity ([3]; Starting)?
**A.** 99.23 area %

**Q.** And the “T/C (relative tumor proliferation rate)” value ([4]; 7.5 mg/kg oral once a day, day 3)?
**A.** 97.1%

**Q.** What about the “T/C (relative tumor proliferation rate)” value ([4]; 7.5 mg/kg oral once a day, day 7) of the same molecule?
**A.** 80.6%

**Q.** What about the “T/C (relative tumor proliferation rate)” value ([4]; 7.5 mg/kg oral once a day, day 10) of the same molecule?
**A.** 76.3%

**Q.** What about the “T/C (relative tumor proliferation rate)” value ([4]; 7.5 mg/kg oral once a day, day 14) of the same molecule?
**A.** 68.2%

**Q.** And the “T/C (relative tumor proliferation rate)” value ([4]; 7.5 mg/kg oral once a day, day 18)?
**A.** 66.5%

**Q.** What about the “T/C (relative tumor proliferation rate)” value ([4]; 7.5 mg/kg oral once a day, day 21) of the same molecule?
**A.** 58.8%

**Q.** And the “T/C (relative tumor proliferation rate)” value ([4]; 15 mg/kg oral once a day, day 3)?
**A.** 76.0%

**Q.** What about the “T/C (relative tumor proliferation rate)” value ([4]; 15 mg/kg oral once a day, day 7) of the same molecule?
**A.** 49.9%

**Q.** And the “T/C (relative tumor proliferation rate)” value ([4]; 15 mg/kg oral once a day, day 10)?
**A.** 43.8%

**Q.** And the “T/C (relative tumor proliferation rate)” value ([4]; 15 mg/kg oral once a day, day 14)?
**A.** 37.1%

**Q.** What about the “T/C (relative tumor proliferation rate)” value ([4]; 15 mg/kg oral once a day, day 18) of the same molecule?
**A.** 33.0%

**Q.** What about the “T/C (relative tumor proliferation rate)” value ([4]; 15 mg/kg oral once a day, day 21) of the same molecule?
**A.** 26.2%

Reference: patent US20260176285A1, “SALT OF DIOXANE QUINOLINE COMPOUND, CRYSTAL FORM THEREOF, PREPARATION METHODS THEREFOR AND USES THEREOF” (Beijing Scitech-MQ Pharmaceuticals Limited, priority 2022, published 2026)
